For 17 molecules, IC50 results are on record in patent publication US20230014445A1, “ALLOSTERIC CHROMENONE INHIBITORS OF PHOSPHOINOSITIDE 3-KINASE (PI3K) FOR THE TREATMENT OF DISEASE” (Petra Pharma Corporation, priority 2021, published 2023).

Test [1] concerns the target T1, human full length PIK3KA Wild-type (p110α/p85α complex) (Homo sapiens, UniProt P42336).
T1 construct: Recombinant, catalytically active human full length PIK3KA Wild-type and H1047R mutant were purchased; 6xHis (N); purchased EMD Millipore Sigma 14-602M
Description: PI3K-Alpha Kinase (PIK3CA) biochemical activity, wild-type (ADP-Glo). The conditions noted are these: 20 uM ATP. In a few lines: (§1)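 ADP formation, measured by ADP-Glo luminescence after reaction to about 10% ATP conversion at 27° C., gives 10-point 4-parameter IC50 curves normalized to no-enzyme and DMSO controls. Lipid substrate was PIP2diC8 or Soy PI at 50 uM, with 20 uM ATP. WT or H1047R p110α/p85α complex (1-5 nM) was preincubated 1 h with compound.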
(In general: ADP-Glo turns the ADP formed in a reaction into a luminescent signal.)

The target in test [2] is PI3K-α (PIK3CA) in MDA-MB-453 cells (Homo sapiens, UniProt P42336). Put plainly: PI3K-Alpha Kinase (PIK3CA) activity in vitro cell based assay (AlphaLisa SureFire). The conditions noted are these: 0% FBS, 3 hours treatment, read-out: PI3K-α (PIK3CA) in vitro cell based assay IC50. The gist of the method:
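Serum-free MDA-MB-453 cells with 1 μg/mL insulin treated 3 h with a 10-point compound series in 0.3% DMSO; lysates analysed by AlphaLisa SureFire. Relative IC50 from 4-parameter fit of % inhibition versus DMSO (max) and 1 μM GDC-0032 (min) controls, duplicates.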
In general terms: Bead proximity is the source of the signal in Alpha formats.

Test [3] concerns the target T2, human full length PIK3KA H1047R mutant (p110α/p85α complex) (Homo sapiens, UniProt P42336, H1047R).
T2 construct: Recombinant, catalytically active human full length PIK3KA Wild-type and H1047R mutant were purchased; 6xHis (N); purchased EMD Millipore Sigma 14-792M
Description: PI3K-Alpha Kinase (PIK3CA) biochemical activity, H1047R mutant (ADP-Glo). The conditions noted are these: 20 uM ATP. In a few lines: as §1

Some results are limits rather than exact numbers.

T2 sequence (P42336 whole entry H1047R): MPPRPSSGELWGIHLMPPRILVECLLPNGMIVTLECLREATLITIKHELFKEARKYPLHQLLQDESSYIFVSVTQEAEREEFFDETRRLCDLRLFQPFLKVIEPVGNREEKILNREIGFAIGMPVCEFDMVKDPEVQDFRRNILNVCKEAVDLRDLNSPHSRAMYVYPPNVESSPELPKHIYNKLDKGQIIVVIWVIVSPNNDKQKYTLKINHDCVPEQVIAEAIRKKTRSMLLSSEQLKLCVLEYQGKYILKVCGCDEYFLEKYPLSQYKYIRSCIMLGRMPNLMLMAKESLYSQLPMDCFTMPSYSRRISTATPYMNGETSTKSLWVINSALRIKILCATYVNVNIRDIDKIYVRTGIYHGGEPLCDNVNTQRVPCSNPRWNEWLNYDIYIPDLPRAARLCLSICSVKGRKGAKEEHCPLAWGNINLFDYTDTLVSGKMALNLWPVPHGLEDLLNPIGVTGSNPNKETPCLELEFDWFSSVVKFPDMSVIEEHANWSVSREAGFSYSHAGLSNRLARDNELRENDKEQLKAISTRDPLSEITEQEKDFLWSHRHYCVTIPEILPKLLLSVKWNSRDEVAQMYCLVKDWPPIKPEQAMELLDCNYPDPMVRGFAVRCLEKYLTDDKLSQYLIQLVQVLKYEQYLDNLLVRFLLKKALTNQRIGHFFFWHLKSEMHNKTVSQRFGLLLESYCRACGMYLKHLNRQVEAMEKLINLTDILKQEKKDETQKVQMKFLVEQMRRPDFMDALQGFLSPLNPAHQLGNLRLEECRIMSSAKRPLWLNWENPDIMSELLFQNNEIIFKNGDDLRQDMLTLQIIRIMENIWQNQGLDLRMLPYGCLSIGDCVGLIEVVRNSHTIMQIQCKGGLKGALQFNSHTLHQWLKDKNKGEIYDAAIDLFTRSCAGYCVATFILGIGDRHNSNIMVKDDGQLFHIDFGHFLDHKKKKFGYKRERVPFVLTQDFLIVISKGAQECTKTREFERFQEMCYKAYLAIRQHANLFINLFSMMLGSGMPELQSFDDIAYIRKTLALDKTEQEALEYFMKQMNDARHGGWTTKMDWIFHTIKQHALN
T2 sequence (P27986 whole entry partner): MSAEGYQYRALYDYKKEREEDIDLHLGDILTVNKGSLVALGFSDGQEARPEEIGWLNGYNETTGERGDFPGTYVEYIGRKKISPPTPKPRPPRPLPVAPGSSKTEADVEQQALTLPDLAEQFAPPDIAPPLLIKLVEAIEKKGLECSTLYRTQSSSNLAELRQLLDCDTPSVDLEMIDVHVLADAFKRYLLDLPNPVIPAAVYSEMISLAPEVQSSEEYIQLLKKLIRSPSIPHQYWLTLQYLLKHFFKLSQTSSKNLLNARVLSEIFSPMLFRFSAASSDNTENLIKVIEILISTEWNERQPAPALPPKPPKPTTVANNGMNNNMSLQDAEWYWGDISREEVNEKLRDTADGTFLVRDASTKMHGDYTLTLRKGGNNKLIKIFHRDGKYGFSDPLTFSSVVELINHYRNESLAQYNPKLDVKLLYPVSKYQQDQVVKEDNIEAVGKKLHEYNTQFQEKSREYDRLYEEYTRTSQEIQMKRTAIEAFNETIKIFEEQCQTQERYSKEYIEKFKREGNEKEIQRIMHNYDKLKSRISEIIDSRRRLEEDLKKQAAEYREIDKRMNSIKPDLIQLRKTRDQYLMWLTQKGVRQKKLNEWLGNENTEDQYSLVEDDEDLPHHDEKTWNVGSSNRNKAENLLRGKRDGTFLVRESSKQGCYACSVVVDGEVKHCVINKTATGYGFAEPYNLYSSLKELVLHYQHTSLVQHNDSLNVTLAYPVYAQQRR
PI3K-α (PIK3CA) in MDA-MB-453 cells, sequence (P42336 whole entry): as the sequence (P42336 whole entry H1047R) above, with R1047H counted along it
PI3K-α (PIK3CA) in MDA-MB-453 cells, sequence (P27986 2-724, further chain): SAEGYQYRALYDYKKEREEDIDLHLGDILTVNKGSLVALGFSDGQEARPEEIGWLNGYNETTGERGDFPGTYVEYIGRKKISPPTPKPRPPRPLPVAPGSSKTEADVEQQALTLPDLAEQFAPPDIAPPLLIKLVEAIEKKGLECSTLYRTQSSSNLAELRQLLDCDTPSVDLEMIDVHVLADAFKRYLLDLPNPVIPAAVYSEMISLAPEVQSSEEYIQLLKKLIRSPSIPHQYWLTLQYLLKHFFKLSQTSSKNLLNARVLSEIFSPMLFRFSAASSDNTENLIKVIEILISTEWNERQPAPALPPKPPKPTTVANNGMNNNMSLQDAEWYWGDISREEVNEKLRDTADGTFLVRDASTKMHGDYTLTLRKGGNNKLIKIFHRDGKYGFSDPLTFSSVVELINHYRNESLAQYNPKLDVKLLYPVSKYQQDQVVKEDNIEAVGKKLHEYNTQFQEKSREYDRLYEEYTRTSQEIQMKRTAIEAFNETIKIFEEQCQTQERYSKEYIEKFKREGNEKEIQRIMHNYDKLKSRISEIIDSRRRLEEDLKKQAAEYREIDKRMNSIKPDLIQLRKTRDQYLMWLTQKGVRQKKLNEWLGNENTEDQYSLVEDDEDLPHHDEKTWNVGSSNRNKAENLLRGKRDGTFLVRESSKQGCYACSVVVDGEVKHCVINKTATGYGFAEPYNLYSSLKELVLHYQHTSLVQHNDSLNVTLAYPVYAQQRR

As to `Cc1cc(C(C)Nc2ccc(C(F)(F)F)cc2C(=O)O)c2oc(-c3cccnc3)c(C)c(=O)c2c1` (single isomer, unassigned; isomer 1) [Example 119, 2-[1-[3,6-Dimethyl-4-oxo-2-(3-pyridyl)chromen-8-yl]ethylamino]-5-(trifluoromethyl)benzoic acid, Isomer 1], the IC50 (usually the concentration that gives 50% inhibition) was 1000 to 5000 nM in test [1] (Soy PI lipid substrate), 50 to 100 nM in test [2] and below 500 nM in test [3] (Soy PI lipid substrate).
Regarding `Cc1cc(C(C)Nc2ccc(F)cc2C(=O)O)c2oc(-c3cccnc3)c(C)c(=O)c2c1` (single isomer, unassigned; isomer 1) [Example 120, 2-[1-[3,6-Dimethyl-4-oxo-2-(3-pyridyl)chromen-8-yl]ethylamino]-5-fluoro-benzoic acid, Isomer 1], the 50% inhibitory concentration (IC50) in test [1] (Soy PI lipid substrate) is 1000 to 5000 nM; in test [2] it was below 50 nM; in test [3] (Soy PI lipid substrate) it was below 500 nM.
Regarding `Cc1cc(C(C)Nc2ccc(C)nc2C(=O)O)c2oc(-c3ccccn3)c(C)c(=O)c2c1` (single isomer, unassigned; isomer 1) [Example 122, 3-[1-[3,6-Dimethyl-4-oxo-2-(2-pyridyl)chromen-8-yl]ethylamino]-6-methyl-pyridine-2-carboxylic acid, Isomer 1], the values for the concentration for half-maximal inhibition (IC50) in test [1] (Soy PI lipid substrate), in test [2] and in test [3] (Soy PI lipid substrate) were 5000 to 10000 nM, 50 to 100 nM and below 500 nM, respectively.
On the same counts, the results for `Cc1cc(C(C)Nc2ccc(C)nc2C(=O)O)c2oc(-c3cncc(F)c3)c(C)c(=O)c2c1` (single isomer, unassigned; isomer 1) [Example 123, 3-[1-[2-(5-Fluoro-3-pyridyl)-3,6-dimethyl-4-oxo-chromen-8-yl]ethylamino]-6-methyl-pyridine-2-carboxylic acid, Isomer 1] are 1000 to 5000 nM, below 50 nM and below 500 nM.
`Cc1cc(C(C)Nc2ccc(F)c(F)c2C(=O)O)c2oc(-c3ccccn3)c(C)c(=O)c2c1` (single isomer, unassigned; isomer 1) [Example 128, 6-[1-[3,6-Dimethyl-4-oxo-2-(2-pyridyl)chromen-8-yl]ethylamino]-2,3-difluoro-benzoic acid, Isomer 1]: the 50% inhibitory concentration (IC50) was 500 to 1000 nM in test [1] (Soy PI lipid substrate), 50 to 100 nM in test [2] and below 500 nM in test [3] (Soy PI lipid substrate).
On the same counts, the results for `Cc1cc(C(C)Nc2ccc(Br)nc2C(=O)O)c2oc(-c3cccnc3)c(C)c(=O)c2c1` (single isomer, unassigned; isomer 1) [Example 129, 6-Bromo-3-[1-[3,6-dimethyl-4-oxo-2-(3-pyridyl)chromen-8-yl]ethylamino]pyridine-2-carboxylic acid, Isomer 1] are below 500 nM, below 50 nM and below 500 nM.
Turning to `Cc1cc(C(C)Nc2ccccc2C(=O)O)c2oc(-c3cnc(N(C)C)s3)c(C)c(=O)c2c1` (single isomer, unassigned; isomer 1) [Example 130, 2-[1-[2-[2-(Dimethylamino)thiazol-5-yl]-3,6-dimethyl-4-oxo-chromen-8-yl]ethylamino]benzoic acid, Isomer 1], the IC50 in test [1] (Soy PI lipid substrate) was 500 to 1000 nM; in test [2], below 50 nM; in test [3] (Soy PI lipid substrate), below 500 nM.
As to `Cc1cc(C(C)Nc2cccnc2C(=O)O)c2oc(-c3cncc(F)c3)c(C)c(=O)c2c1` (single isomer, unassigned; isomer 1) [Example 131, 3-[1-[2-(5-Fluoro-3-pyridyl)-3,6-dimethyl-4-oxo-chromen-8-yl]ethylamino]pyridine-2-carboxylic acid, Isomer 1], the results for the IC50 in test [1] (Soy PI lipid substrate), in test [2] and in test [3] (Soy PI lipid substrate) were above 10000 nM, 50 to 100 nM and 1000 to 5000 nM, respectively.
On the same counts, the results for `Cc1cc(C(C)Nc2ccc(Cl)cc2C(=O)O)c2oc(-c3cccnc3)c(C)c(=O)c2c1` (single isomer, unassigned; isomer 1) [Example 132, 5-Chloro-2-[1-[3,6-dimethyl-4-oxo-2-(3-pyridyl)chromen-8-yl]ethylamino]benzoic acid, Isomer 1] are 500 to 1000 nM, below 50 nM and below 500 nM.
As to `COc1cccc(-c2cc(=O)c3cc(C)cc(C(C)Nc4ccccc4C(=O)O)c3o2)n1` (single isomer, unassigned; isomer 2) [Example 22, 2-[1-[2-(6-Methoxy-2-pyridyl)-6-methyl-4-oxo-chromen-8-yl]ethylamino]benzoic acid, Isomer 2], the figures for the concentration for half-maximal inhibition (IC50) in test [1] (Soy PI lipid substrate), in test [2] and in test [3] (Soy PI lipid substrate) were 1000 to 5000 nM, 50 to 100 nM and below 500 nM, respectively.
In the case of `Cc1cc(C(C)Nc2ccccc2C(=O)O)c2oc(-c3nccnc3C)cc(=O)c2c1` (single isomer, unassigned; isomer 2) [Example 29, 2-[1-[6-Methyl-2-(3-methylpyrazin-2-yl)-4-oxo-chromen-8-yl]ethylamino]benzoic acid, Isomer 2], the values for the IC50 in test [1] (Soy PI lipid substrate), in test [2] and in test [3] (Soy PI lipid substrate) were 5000 to 10000 nM, 100 to 500 nM and below 500 nM, respectively.
Turning to `Cc1cc(C(C)Nc2ccccc2C(=O)O)c2oc(-c3cnc(C)nc3)cc(=O)c2c1` (single isomer, unassigned; isomer 2) [Example 33, 2-[1-[6-Methyl-2-(2-methylpyrimidin-5-yl)-4-oxo-chromen-8-yl]ethylamino]benzoic acid, Isomer 2], the IC50 in test [1] (PIP2diC8 lipid substrate) was above 10000 nM; in test [2], above 500 nM; in test [3] (PIP2diC8 lipid substrate), above 10000 nM.
`Cc1cc(C(C)Nc2ccccc2C(=O)O)c2oc(-c3ccc(F)nc3)cc(=O)c2c1` (single isomer, unassigned; isomer 2) [Example 36, 2-[1-[2-(6-Fluoro-3-pyridyl)-6-methyl-4-oxo-chromen-8-yl]ethylamino]benzoic acid, Isomer 2]: the figures for the IC50 in test [1] (Soy PI lipid substrate), in test [2] and in test [3] (Soy PI lipid substrate) were 5000 to 10000 nM, below 50 nM and below 500 nM, respectively.
Turning to `Cc1cc(C(C)Nc2ccccc2C(=O)O)c2oc(-c3cnc(OC(C)C)nc3)cc(=O)c2c1` (single isomer, unassigned; isomer 2) [Example 42, 2-[1-[2-(2-Isopropoxypyrimidin-5-yl)-6-methyl-4-oxo-chromen-8-yl]ethylamino]benzoic acid, Isomer 2], the IC50 in test [1] (Soy PI lipid substrate) was 5000 to 10000 nM; in test [2], 50 to 100 nM; in test [3] (Soy PI lipid substrate), below 500 nM.
Taken in the same sequence, the figures for `COc1cccc(-c2nnc(-c3cc(=O)c4cc(C)cc(C(C)Nc5ccccc5C(=O)O)c4o3)o2)c1` (single isomer, unassigned; isomer 2) [Example 84, 2-[1-[2-[5-(3-Methoxyphenyl)-1,3,4-oxadiazol-2-yl]-6-methyl-4-oxo-chromen-8-yl]ethylamino]benzoic acid, Isomer 2] were 1000 to 5000 nM, 100 to 500 nM and below 500 nM.
Taken in the same sequence, the figures for `Cc1cc(C(C)Nc2cccc(F)c2C(=O)O)c2oc(-c3ccccn3)cc(=O)c2c1` (single isomer, unassigned; isomer 2) [Example 111, 2-Fluoro-6-[1-[6-methyl-4-oxo-2-(2-pyridyl)chromen-8-yl]ethylamino]benzoic acid, Isomer 2] were 1000 to 5000 nM, above 500 nM and 1000 to 5000 nM.
Taken in the same sequence, the figures for `Cc1cc(C(C)Nc2cccc(F)c2C(=O)O)c2oc(-c3cnn(-c4ccc(C#N)cc4)c3)cc(=O)c2c1` (single isomer, unassigned; isomer 2) [Example 113, 2-[1-2-[1-(4-Cyanophenyl)pyrazol-4-yl]-6-methyl-4-oxo-chromen-8-yl]ethylamino]-6-fluoro-benzoic acid, Isomer 2] were 1000 to 5000 nM, 100 to 500 nM and below 500 nM.
